Assay results as given in patent US20050232925A1, “Protease activity of thrombin inhibits angiogenesis” (priority 2002, published 2005).

Legend:
[1] = system: 4T1 murine breast cancer cell line; experiment: Primary tumor growth of transfected 4T1 cells in BALB/c mice; assay type: in vivo; settings: stable expression in 4T1 cells, mammary pad of BALB/c mice, vs empty vector, five weeks
Source text: Construction of mutant uPA clones and cell transfection. We chose to pursue a genetic approach, in which we stably transfected an aggressive and highly metastatic murine breast cancer cell line (4T1) with the genes for wild type uPA, tPA and a receptor binding mutant of uPA (uPAm). We inserted the cDNA encoding murine tPA into pcDNA 3.1 (+) (Invitrogen), a CMV driven mammalian expression vector, by restriction enzyme digestion of BamHI and NheI. Wild type uPA cDNA was inserted to the pcDNA 3.1 (+) expression vector and the transfected into 4T1 cells in a similar fashion as described for the tPA cDNA. Residues 22, 27, 29 and 30 on the growth factor domain of the murine uPA molecule have been implicated in binding to mouse uPAR.
The pcDNA 3.1-tPA, pcDNA 3.1-wild type uPA, pcDNA 3.1-uPAm constructs, as well as an empty vector control were introduced into 4T1 cells by transfection using lipofectamine (Gibco-BRL) reagent. We selected 12-14 stable single clones in each group with 500 ug/mL of hygromycin. Each of the clones was evaluated for generation of the gene of interest by northern blot. The clones that had the highest generation of the genes of interest were selected. […]
Experiments using transfected tumor cells. […] Primary tumor size was measured every other day for a total of five weeks using calipers and calculated using the standard formula (width2×length×0.52). […]

[2] = system: microvessels in bFGF-containing matrigel plugs; experiment: In vivo angiogenesis (matrigel plug) assay, systemic treatment; set-up: species or system mice; settings: rt-PA 60 μg subcutaneously/day, captopril 150 μg intraperitoneally/day, 10 days
Description: In Vivo Angiogenesis (Matrigel Plug) Assay. The matrigel-plug assay was performed as described in Maeshima et al., (Maeshima et al., J Biol Chem 275:21340-8, 2000; Maeshima et al., J Biol Chem 276:31959-68, 2001) with modifications as follows. All animal studies were reviewed and approved by the animal care and use committee of Beth Israel Deaconess Medical Center and are in accordance with the guidelines of the department of Health and Human Services. Five to six week-old male C57/BL6 mice (The Jackson Laboratories; Bar Harbor, Me.) were injected subcutaneously at the left lower abdominal wall with 0.5 ml of unpolymerized matrigel supplemented with 500 ng/ml of basic fibroblast growth factor for the stimulated controls and treatment groups and with equivalent volume of sterile PBS for the unstimulated (no b-FGF) control group. Mice (3 per group) were treated for 10 days with: 1) rt-PA (60 μg subcutaneously/day) and captopril (150 μg intraperitoneally/day). 2) Subcutaneous rt-PA alone with equivalent volume of intraperitoneal (IP) PBS. 3) IP captopril (150 μg) with equivalent volume of subcutaneous PBS. 4) Equivalent volumes of PBS (subcutaneously and intraperitoneally). […] Sections were examined by light microscopy, and the total number of blood vessels from 10 high power fields (400× magnification) were counted in a blinded fashion. […]

[3] = system: HUVEC cells; experiment: In vitro angiogenesis (matrigel tube formation) assay; assay type: cell-based, human
Description: In Vitro Angiogenesis (matrigel tube formation) Assay. Unpolymerized matrigel (7 mg/ml) was placed in the wells (100 μl/well) of a pre-chilled 48-well cell culture plate and then incubated at 37° C. for 30-45 minutes. HUVEC cells were harvested in trypsin and resuspended in EC medium (4×10^4 in 300 μl). Cells were treated with the different agents before plated onto the matrigel-coated plates. […] Microphotographs of the center of each well at low power (40×) were taken with a SPOT camera (Diagnostic Instruments Inc; Sterling Heights, Mich.) and the aid of an imaging capture software (Compix Inc Imaging Systems; Township, Pa.). The microphotographs were quantitatively analyzed (total tube length) with the Simple PCI imaging analysis software (Compix).
Matrigel tube formation assays. Samples collected from the purification process were exchanged into 1×PBS and reconstituted into 1× concentration (by volume) compared to the input tPA/captopril-treated plasma. They were tested in the matrigel tube formation assays at 10% (v/v) as follows. Unpolymerized matrigel (7 mg/ml) was placed in the wells (100 μl/well) of a pre-chilled 48-well cell culture plate and then incubated at 37° C. for 30-45 minutes for polymerization to take place. […] Tube formation was examined (4× magnification) through an inverted phase contrast microscope (Nikon Corporation; Tokyo, Japan) and recorded by a Spot RT camera (Diagnostic Instruments Inc; Sterling Heights, Mich.) using an automated image capture software (Compix Inc Imaging Systems; Township, Pa.).

[4] = system: blood vessels in bFGF-enriched matrigel plugs; experiment: In vivo matrigel-plug assay, agent mixed into matrigel; set-up: species or system mice
Description: In vivo matrigel-plug assays. The matrigel-plug assay was performed as described in Maeshima et al., (Maeshima et al., J Biol Chem 275:21340-8, 2000; Maeshima et al., J Biol Chem 276:31959-68, 2001) with modifications as follows. Briefly, 500 μl of unpolymerized matrigel at a concentration of 10 mg/ml enriched with bFGF (250 ng/ml) were mixed with one of the following: PBS (vehicle), prothrombin, or TRAP. Each mixture was injected subcutaneously at the left lower abdominal wall of C57/B mice (5 to 6-week old; Jackson laboratories; Bar Harbor, Me.). At day ten, the mice were sacrificed. The matrigel plugs were then excised, fixed in 4% paraformaldehyde, embedded in paraffin, sectioned, and H&E stained. Sections were examined by light microscopy, and the total number of blood vessels from 10 high power fields (400×) were counted in a blinded fashion. Only the micro-vessels containing red blood cells were counted as positive. Results shown represent the average of counts from 4 to 5 matrigel plugs per group.

[5] = system: platelet aggregation; settings: phenylalanine to alanine mutation at position 2; cited from earlier work

With “wildtype uPA: murine wild type uPA expressed from pcDNA 3.1 in 4T1 cells” as the molecule, how does the “inhibition of primary tumor growth” value [1] read?
The value was “significantly inhibit tumor cell growth”.

Which “microvessel counts in matrigel plugs” value [2] does the source give for `C[C@H](CS)C(=O)N1CCC[C@H]1C(=O)O` [captopril] here?
The value was “did not show major reduction of neovascularization”.

And the “inhibition of tube formation” value ([3]; in the absence of plasma, rt-PA 1 μg/ml, captopril 0.1 μM)?
The value was “did not cause significant inhibition of tube formation”.

Which “endothelial cell tube formation” value ([3]; 50 and 100 μM SFLLRN) does the source give for SFLLRN here?
Its value is “dose-dependent inhibitory effect on endothelial cell tube formation”.

For thrombin, which “endothelial cell tube formation” value ([3]; thrombin at 5 U/ml (FIGS. 11D, 11E: 1 and 5 U/ml)) is on record?
The value was “minimal effects on endothelial cell tube formation”.

And the “endothelial cell tube formation” value ([3]; thrombin at 10 U/ml)?
Its value is “significantly inhibits tube formation”.

Which “endothelial cell tube formation” value ([3]; 100 μM peptide) does the source give for SLIGKV here?
Its value is “little effect on tube formation”.

Which “endothelial cell tube formation” value ([3]; 100 μM peptide) does the source give for GYPGKF here?
Its value is “little effect on tube formation”.

Which “inhibition of tube formation” value ([3]; 10 μg/ml) does the source give for Angiostatin here?
Its value is “did not significantly inhibit tube formation”.

And the “inhibition of tube formation” value ([3]; 50 μg/ml)?
Its value is “did not significantly inhibit tube formation”.

What does the source list for SFLLRNPNDKYEPF [TRAP]?
endothelial cell tube formation ([3]; 1, 10, 100 μM TRAP): dose-dependently inhibited endothelial cell tube formation; reduction of bFGF-stimulated blood vessel formation in matrigel plugs ([4]; 250 ng/ml bFGF, day 10, 10 ρg/ml prothrombin, 250 μM TRAP (FIG. 13)): significantly reduced

With SALLRN as the molecule, how does the “endothelial cell tube formation” value ([3]; 100 μM peptide) read?
The value was “no inhibitory effect”.

What about the “ability to induce platelet aggregation in vitro” value [5] of the same molecule?
Its value is “completely eliminated the ability of the peptide to induce platelet aggregation”.

Which “increase in angiogenesis in matrigel plugs” value ([4]; 250 ng/ml bFGF vs no bFGF) does the source give for “bFGF: basic fibroblast growth factor (Peprotech), proangiogenic stimulant” here?
The value was “seven-fold increase”.

What does the source list for lepirudin?
block of thrombin inhibition of tube formation ([3]; 10 U/ml thrombin with 200 U/ml lepirudin): completely blocked; endothelial cell tube formation ([3]; lepirudin alone at 200 U/ml): no effects in endothelial cell tube formation; block of prothrombin inhibition of tube formation ([3]; prothrombin with 200 U/ml lepirudin): completely blocked
